According to the NIST ThermoML archive (doi:10.1021/acs.jced.8b00517):
Numbers after ± are expanded uncertainties.

What was measured:
[1] = refractive index (Na D-line) (dimensionless); details: 293.15 K; 101.33 kPa; Liquid; Standard Abbe refractometry
[2] = Liquid; for mass density: 293.15 K, 101.33 kPa, Vibrating tube method; for vapor or sublimation pressure: Ebulliometric method (Recirculating still)
[3] = Boiling temperature at pressure P; details: Liquid, Ebulliometric method (Recirculating still)

| refractive index [1] | mass density [2] [kg/m3] | Boiling temperature at pressure P ([3]; 19.9 kPa) [°C] | Boiling temperature at pressure P ([3]; 34.33 kPa) [°C] | Boiling temperature at pressure P ([3]; 39.89 kPa) [°C] | Boiling temperature at pressure P ([3]; 49.89 kPa) [°C] | Boiling temperature at pressure P ([3]; 58.58 kPa) [°C] | Boiling temperature at pressure P ([3]; 69.3 kPa) [°C] | Boiling temperature at pressure P ([3]; 79.88 kPa) [°C] | Boiling temperature at pressure P ([3]; 89.88 kPa) [°C] | Boiling temperature at pressure P ([3]; 98.88 kPa) [°C] | vapor or sublimation pressure ([2]; 343.15 K) [kPa] | vapor or sublimation pressure ([2]; 358.15 K) [kPa] | vapor or sublimation pressure ([2]; 363.15 K) [kPa] | SMILES |
| --- | --- | --- | --- | --- | --- | --- | --- | --- | --- | --- | --- | --- | --- | --- |
| 1.3959 ± 0.0009 | 801.49 ± 2 |  |  |  |  |  |  |  |  |  |  |  |  | CC(C)CO [2-methyl-1-propanol] |
| 1.3906 ± 0.0009 | 805.86 ± 2 | 56.44 ± 0.22 | 70.32 ± 0.22 | 74.40 ± 0.19 | 80.62 ± 0.18 | 85.30 ± 0.17 | 90.4 ± 0.17 | 94.76 ± 0.17 | 98.53 ± 0.16 | 101.59 ± 0.16 | 34.4 ± 0.32 | 58.64 ± 0.39 | 69.36 ± 0.46 | CCCC(C)=O [pentan-2-one] |
